Data: PubChem BioAssay AID2060325 (Molecular Pharmacology Branch, DTP, NCI, 2025)
“And” between values parts separate entries of the source, which are not always exact repeats. Identical values can stand only once.

Tested on: SK-OV-3 multi-cell spheroids, viability
Assay: Anticancer human tumor SK-OV-3 cell line growth inhibition [IpAb];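 on viability, T/C: viability read after seven days of drug exposure; percent of DMSO vehicle control luminescence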
Conditions: for viability, T/C: stronger effect = lower value; for IC50: curve of compound
Source text: Combinatorial screen of targeted agents with ipatasertib and abemaciclib in multi-cell type tumor spheroids
A high-throughput screen of multi-cell type tumor spheroids was designed to identify active combinations of targeted small molecules and ipatasertib or abemaciclib. Complex spheroids include a stromal component modeled by human endothelial cells (HUVEC) and fibroblasts modeled by human mesenchymal stem cells (MSCs). The concentration ranges selected for each drug and investigational agent were based upon clinically achievable concentrations if the clinical Cmax of the agent was known.
Compounds. The drugs and investigational agents: ipatasertib (NSC767898), abemaciclib(NSC768073), selumetinib (NSC741078), trametinib (758246), adavosertib (NSC754352), everolimus (NSC733504), sapanisertib (NSC764658), vemurafenib (NSC761431), venetoclax (NSC766270), copanlisib (NSC809693), apelisib (NSC765974), palbociblib (NSC758247), vemurafenib (NSC761431), dabrafenib (NSC764134), ravoxertinib (NSC781343), BMS-387032 (NSC767048), sotorasib (NSC818433), talazoparib (NSC767125) and afursertib (NSC778305), were obtained from the National Cancer Institute (NCI) Developmental Therapeutics Program Chemical Repository. The FDA-approved anticancer drug set is available from the NCI Developmental Therapeutics Program. […] The stock solutions were prepared in dimethyl sulfoxide (DMSO, Sigma-Aldrich, St. Louis, MO, cat. D2650) at 800-fold the tested concentration and stored at -70 degrees C prior to their use. All drugs and investigational agents were tested over a range starting from a high concentration at or near the clinical Cmax and decreasing in half-log increments. If the clinical Cmax for an agent had not been determined, the highest concentration tested was 10 microM.
NCI60 Cell Culture. NCI60 cell lines were obtained from the NCI Developmental Therapeutics Program Tumor Repository. For each lot of cells, the Repository performed Applied Biosystems AmpFLSTR Identifiler testing with PCR amplification to confirm consistency with the published Identifier STR profile for each cell line. Cells were kept in continuous culture for no more than 20 passages. The optimal seeding densities for each of the cell lines at each time point assessed were determined prior to performing the concentration response studies. Briefly, the NCI60 human tumor lines were grown as monolayers in RPMI 1640 medium supplemented with 10% FBS and 2 mmol/L L-glutamine.
An additional 9 lines were from the NCI60 cell line panel including MDA-MB-231 breast carcinoma, MDA-MB-468 breast carcinoma, MCF7 breast carcinoma, Hs578T breast carcinoma, MALME-3M melanoma, SK-MEL-2 melanoma, SK-OV-3 ovarian carcinoma, DU-145 prostate carcinoma, PC-3 prostate carcinoma, all cell lines along with major genetic alterations are listed on Table 2. Pooled donor human umbilical vein endothelial cells (HUVEC, Lonza, cat. CC-2519) and human mesenchymal stem cells (hMSC, Lonza, cat. PT-2501) were purchased from Lonza (Walkersville, MD).
PDMR cell lines were grown in complete medium (DC medium): Dulbecco's modified Eagle's medium (DMEM)/F12 supplemented with 5% fetal bovine serum (FBS), 2 mM L-glutamine, 100 U/mL penicillin and 100 µg/ml streptomycin, 0.4 µg/ml hydrocortisone, 10 ng/ml epidermal growth factor (EGF) recombinant human protein, 24 µg/mL adenine, and 0.1 mg/mL primocin. During culture from frozen stock vials, PDMR cells were cultured in the same medium containing 10 µM Y-27632 (see Table 3). The PDCs were cultured in complete DMEM/F12 media without 10 microM Y-27632 dihydrochloride for at least two passages prior to the screen. The pooled donor HUVEC and hMSC were cultured in endothelial cell growth medium 2 (PromoCell, Heidelberg, Germany, cat. C-22011) and mesenchymal stem cell growth medium 2 (PromoCell, cat. C-28009), respectively. For all experiments, HUVEC and hMSC were used at passages </=5.
[…]

Structure (SMILES) | viability, T/C (compound 0.0316 µM) | viability, T/C (compound 0.1 µM) | viability, T/C (compound 0.316 µM) | viability, T/C (compound 1 µM) | viability, T/C (compound 3.16 µM) | viability, T/C (compound 10 µM) | IC50 | viability, T/C (compound 0.000949 µM) | viability, T/C (compound 0.003 µM) | viability, T/C (compound 0.00949 µM) | viability, T/C (compound 0.03 µM) | viability, T/C (compound 0.0949 µM) | viability, T/C (compound 0.3 µM) | viability, T/C (compound 0.949 µM) | viability, T/C (compound 3 µM) | viability, T/C (compound 0.000316 µM) | viability, T/C (compound 0.001 µM) | viability, T/C (compound 0.00316 µM) | viability, T/C (compound 0.01 µM)
C=CC(=O)N1CCN(c2nc(=O)n(-c3c(C)ccnc3C(C)C)c3nc(-c4c(O)cccc4F)c(F)cc23)C(C)C1 (stereo unspecified) | 100% and 104% | 107% and 105% | 111% and 117% | 115% and 130% | 125% and 120% | 77.3% and 82.5% | > 10000 nM | – | – | – | – | – | – | – | – | – | – | – | –
C=CCn1c(=O)c2cnc(Nc3ccc(N4CCN(C)CC4)cc3)nc2n1-c1cccc(C(C)(C)O)n1 | 89.6% and 97.2% | 64.6% and 59.2% | 13.3% and 15.5% | 8.1% and 7.49% | 4.13% and 4.87% | 6.98% and 5.63% | 139 nM and 128 nM | – | – | – | – | – | – | – | – | – | – | – | –
CC(=O)c1c(C)c2cnc(Nc3ccc(N4CCNCC4)cn3)nc2n(C2CCCC2)c1=O | – | – | – | – | – | – | > 300 nM and 253 nM | 95.2% and 104% | 88.7% and 83.4% | 75.1% and 80.8% | 60.9% and 56.5% | 56.6% and 55% | 54.1% and 49.9% | – | – | – | – | – | –
CC(C)(C)c1cnc(CSc2cnc(NC(=O)C3CCNCC3)s2)o1 | – | – | – | – | – | – | 189 nM and 212 nM | – | – | 111% and 106% | 119% and 113% | 120% and 117% | 14.5% and 23.1% | 0.98% and 1.33% | 0.95% and 1.2% | – | – | – | –
CC(C)n1nc(-c2ccc3oc(N)nc3c2)c2c(N)ncnc21 | 10.8% and 11.2% | 7.02% and 7.25% | – | – | – | – | 2.13 nM and 2.54 nM | – | – | – | – | – | – | – | – | 90.3% and 86.6% | 71.8% and 76.2% | 37.6% and 42.3% | 19.2% and 21.4%
CC1(C)CCC(CN2CCN(c3ccc(C(=O)NS(=O)(=O)c4ccc(NCC5CCOCC5)c([N+](=O)[O-])c4)c(Oc4cnc5[nH]ccc5c4)c3)CC2)=C(c2ccc(Cl)cc2)C1 | 108% and 100% | 105% and 103% | 104% and 112% | 96.4% and 94.5% | 61.8% and 62.1% | 24.5% and 5.23% | 4560 nM and 4020 nM | – | – | – | – | – | – | – | – | – | – | – | –
CCCS(=O)(=O)Nc1ccc(F)c(C(=O)c2c[nH]c3ncc(-c4ccc(Cl)cc4)cc23)c1F | 116% and 100% | 101% and 100% | 108% | 102% and 108% | 89.4% and 88.4% | 33.9% and 49.1% | 7130 nM and 9740 nM | – | – | – | – | – | – | – | – | – | – | – | –
CCN1CCN(Cc2ccc(Nc3ncc(F)c(-c4cc(F)c5nc(C)n(C(C)C)c5c4)n3)nc2)CC1 | 71.2% [middle of 13 runs] | 54.8% [middle of 13 runs] | 53.6% [middle of 13 runs] | 43.7% [middle of 13 runs] | – | – | – | – | – | – | – | – | – | – | – | – | – | – | 87.1% [middle of 13 runs]
COc1c(OCCCN2CCOCC2)ccc2c3n(c(=NC(=O)c4cnc(N)nc4)nc12)CCN3 | 11.5% and 12.2% | 7.4% and 8.86% | 6.39% and 5.98% | 4.6% and 3.86% | – | – | 8.71 nM and 9.06 nM | – | – | – | – | – | – | – | – | – | – | 92.7% and 89.1% | 44.2% and 46.4%
Cc1nc(NC(=O)N2CCCC2C(N)=O)sc1-c1ccnc(C(C)(C)C(F)(F)F)c1 (stereo unspecified) | 91.9% and 91.3% | 78.5% and 80.2% | 47.3% and 49% | 20.7% and 26.9% | 10.9% and 10.7% | 5.21% and 4.93% | 291 nM and 337 nM | – | – | – | – | – | – | – | – | – | – | – | –
Cn1cnc2c(F)c(Nc3ccc(Br)cc3Cl)c(C(=O)NOCCO)cc21 | – | – | – | – | – | – | 2100 nM and 1880 nM | – | – | 96% and 97.7% | 106% and 99.9% | 98% and 112% | 104% and 108% | 73.2% and 80.4% | 39.5% and 29.2% | – | – | – | –
Cn1ncc(Cl)c1-c1cc(C(=O)NC(CN)Cc2cccc(F)c2)sc1Cl (stereo unspecified) | 73.4% and 80.3% | 52.8% and 48.3% | 27.5% and 26.4% | 16.1% and 19% | 8.76% and 8.97% | 0.31% and 1.17% | 106 nM and 96.1 nM | – | – | – | – | – | – | – | – | – | – | – | –
Cn1nccc1Nc1nccc(-c2ccn(C(CO)c3ccc(Cl)c(F)c3)c(=O)c2)n1 (stereo unspecified) | 101% and 98.5% | 103% and 108% | 108% and 116% | 126% | 94.8% and 100% | 52.2% and 48.9% | > 10000 nM and 9730 nM | – | – | – | – | – | – | – | – | – | – | – | –
Cn1ncnc1[C@H]1c2n[nH]c(=O)c3cc(F)cc(c23)N[C@@H]1c1ccc(F)cc1 | 87.8% and 86.8% | 73.5% and 68.5% | – | – | – | – | > 100 nM | – | – | – | – | – | – | – | – | 108% and 97.8% | 101% and 102% | 101% and 98.3% | 98.5% and 88.4%
